Source: ChEMBL document CHEMBL2203135, “Novel progesterone receptor modulators: 4-aryl-phenylsulfonamides” (Bioorg Med Chem Lett, 2012)
The source made the active and inactive calls. The calls are words filed in the database; no cut-off is given here.

Legend:
[1] = molecular target: T1, Estrogen receptor (Homo sapiens, UniProt P03372); assay: (§1) Antagonist activity at estrogen receptor by cellular reporter gene assay; assay type: functional
T1 sequence (P03372 whole entry): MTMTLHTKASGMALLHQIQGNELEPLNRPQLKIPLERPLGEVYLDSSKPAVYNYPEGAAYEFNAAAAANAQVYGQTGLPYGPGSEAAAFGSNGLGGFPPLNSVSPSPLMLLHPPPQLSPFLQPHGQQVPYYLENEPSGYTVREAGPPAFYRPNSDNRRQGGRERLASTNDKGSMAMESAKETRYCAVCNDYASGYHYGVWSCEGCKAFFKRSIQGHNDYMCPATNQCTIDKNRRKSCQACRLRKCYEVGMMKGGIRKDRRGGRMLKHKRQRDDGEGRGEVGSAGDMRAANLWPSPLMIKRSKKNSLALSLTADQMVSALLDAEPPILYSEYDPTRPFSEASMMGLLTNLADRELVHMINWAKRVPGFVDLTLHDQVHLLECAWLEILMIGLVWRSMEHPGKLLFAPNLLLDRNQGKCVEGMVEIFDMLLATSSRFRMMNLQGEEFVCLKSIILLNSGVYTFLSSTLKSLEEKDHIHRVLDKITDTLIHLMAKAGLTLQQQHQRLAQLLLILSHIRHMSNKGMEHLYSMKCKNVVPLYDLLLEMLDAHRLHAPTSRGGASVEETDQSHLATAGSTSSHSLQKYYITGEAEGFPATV

[2] = molecular target: T2, Glucocorticoid receptor (Homo sapiens, UniProt P04150); assay: Antagonist activity at glucocorticoid receptor by cellular reporter gene assay; assay type: functional
T2 sequence (P04150 whole entry): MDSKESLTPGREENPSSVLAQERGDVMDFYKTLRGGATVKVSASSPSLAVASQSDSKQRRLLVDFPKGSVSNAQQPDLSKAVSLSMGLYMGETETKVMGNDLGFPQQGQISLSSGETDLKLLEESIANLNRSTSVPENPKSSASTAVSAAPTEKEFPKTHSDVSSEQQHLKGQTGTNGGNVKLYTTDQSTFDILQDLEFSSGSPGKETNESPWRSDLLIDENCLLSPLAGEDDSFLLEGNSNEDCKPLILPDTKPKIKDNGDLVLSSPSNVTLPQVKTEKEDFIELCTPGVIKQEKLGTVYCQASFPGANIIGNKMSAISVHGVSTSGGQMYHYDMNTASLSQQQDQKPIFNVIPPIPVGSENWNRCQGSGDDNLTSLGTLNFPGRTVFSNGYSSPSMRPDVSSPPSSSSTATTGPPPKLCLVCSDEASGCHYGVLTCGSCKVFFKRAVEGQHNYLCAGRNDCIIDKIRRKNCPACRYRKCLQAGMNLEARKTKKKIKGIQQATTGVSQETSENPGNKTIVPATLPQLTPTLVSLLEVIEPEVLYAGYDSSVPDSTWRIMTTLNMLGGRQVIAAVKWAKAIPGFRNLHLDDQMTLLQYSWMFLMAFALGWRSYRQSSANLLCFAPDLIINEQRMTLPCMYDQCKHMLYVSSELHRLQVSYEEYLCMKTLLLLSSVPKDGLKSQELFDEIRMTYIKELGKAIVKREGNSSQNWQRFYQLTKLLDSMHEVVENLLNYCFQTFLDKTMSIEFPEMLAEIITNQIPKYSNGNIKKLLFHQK

[3] = molecular target: T3, Estrogen receptor (Homo sapiens) (UniProt P03372); assay: Agonist activity at estrogen receptor by cellular reporter gene assay; assay type: functional
T3 sequence (whole entry): T1 sequence (P03372 whole entry)

[4] = test system: Plasma; assay: Free plasma concentration in ovariectomized rhesus monkey at 5 mg/kg/day, po; assay type: ADME, organism-based, Macaca mulatta; parameters: route oral; settings: in vivo
[5] = test system: Plasma; assay: Average drug concentration in ovariectomized rhesus monkey plasma at 5 mg/kg/day, po; assay type: ADME, organism-based, Macaca mulatta; parameters: route oral; settings: in vivo
[6] = Cmax in in ovariectomized rhesus monkey at 5 mg/kg/day, po; assay type: ADME, organism-based, Macaca mulatta; parameters: dose 5 mg/kg/day, route oral; settings: female, in vivo
[7] = Oral bioavailability in rat at 2 mg/kg; assay type: ADME, organism-based; settings: in vivo
[8] = Half life in rat at 2 mg/kg, po; assay type: ADME, organism-based; parameters: dose 2 mg/kg, route oral; settings: in vivo
[9] = Cmax in rat at 2 mg/kg, po; assay type: ADME, organism-based; parameters: dose 2 mg/kg, route oral; settings: in vivo
[10] = AUC (0 to infinity) in rat at 2 mg/kg, iv; assay type: ADME, organism-based; parameters: time infinity, dose 2 mg/kg, route intravenous; settings: plasma
[11] = AUC (0 to infinity) in cynomolgus monkey at 2 mg/kg, po; assay type: ADME, organism-based, Macaca fascicularis; parameters: time infinity, dose 2 mg/kg, route oral; settings: plasma
[12] = Half life in cynomolgus monkey at 2 mg/kg, po; assay type: ADME, organism-based, Macaca fascicularis; parameters: dose 2 mg/kg, route oral; settings: in vivo
[13] = AUC (0 to infinity) in cynomolgus monkey at 2 mg/kg, iv; assay type: ADME, organism-based, Macaca fascicularis; parameters: time infinity, dose 2 mg/kg, route intravenous; settings: plasma
[14] = Volume of distribution at steady state in cynomolgus monkey at 2 mg/kg, iv; assay type: ADME, organism-based, Macaca fascicularis; parameters: dose 2 mg/kg, route intravenous; settings: in vivo, read-out: Vdss
[15] = Fraction unbound in rat plasma; assay type: ADME, cell-free
[16] = molecular target: T4, Mineralocorticoid receptor (Homo sapiens) (UniProt P08235); assay: Antagonist activity at mineralocorticoid receptor at 1 uM by cellular reporter gene assay; assay type: functional; parameters: scale not given: the % may be the effect or the level left
T4 sequence (whole entry): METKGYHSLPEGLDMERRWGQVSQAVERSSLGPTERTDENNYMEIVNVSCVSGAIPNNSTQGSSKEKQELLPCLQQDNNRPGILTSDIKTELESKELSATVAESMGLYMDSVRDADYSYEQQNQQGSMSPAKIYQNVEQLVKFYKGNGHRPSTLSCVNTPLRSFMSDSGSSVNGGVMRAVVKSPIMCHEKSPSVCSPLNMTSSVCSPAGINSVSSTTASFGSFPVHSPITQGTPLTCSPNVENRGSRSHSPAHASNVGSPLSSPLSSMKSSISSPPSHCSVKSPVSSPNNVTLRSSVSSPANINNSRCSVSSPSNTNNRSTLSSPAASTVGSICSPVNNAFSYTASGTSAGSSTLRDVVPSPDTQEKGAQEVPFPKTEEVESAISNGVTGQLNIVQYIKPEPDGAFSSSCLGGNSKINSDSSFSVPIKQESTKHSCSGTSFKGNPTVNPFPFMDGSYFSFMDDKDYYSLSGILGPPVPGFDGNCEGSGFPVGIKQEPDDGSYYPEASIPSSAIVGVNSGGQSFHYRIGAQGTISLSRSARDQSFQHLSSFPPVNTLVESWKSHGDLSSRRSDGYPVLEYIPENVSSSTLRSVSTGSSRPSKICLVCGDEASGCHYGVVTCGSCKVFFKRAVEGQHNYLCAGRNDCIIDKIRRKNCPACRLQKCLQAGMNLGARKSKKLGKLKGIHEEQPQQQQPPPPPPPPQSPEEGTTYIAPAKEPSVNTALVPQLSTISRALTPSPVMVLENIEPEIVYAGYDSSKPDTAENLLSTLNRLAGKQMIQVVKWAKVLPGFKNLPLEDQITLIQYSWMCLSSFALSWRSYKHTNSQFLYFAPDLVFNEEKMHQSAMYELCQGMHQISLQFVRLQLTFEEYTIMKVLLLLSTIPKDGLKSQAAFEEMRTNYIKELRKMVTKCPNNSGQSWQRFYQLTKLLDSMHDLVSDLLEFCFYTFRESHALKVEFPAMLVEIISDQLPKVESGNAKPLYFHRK

[17] = molecular target: T3, Estrogen receptor (Homo sapiens); assay: as §1; assay type: functional
[18] = molecular target: T2, Glucocorticoid receptor; assay: Agonist activity at glucocorticoid receptor by cellular reporter gene assay
[19] = Half life in cynomolgus monkey at 2 mg/kg, iv; assay type: ADME, organism-based, Macaca fascicularis; parameters: dose 2 mg/kg, route intravenous; settings: in vivo
[20] = Fraction unbound in human plasma; assay type: ADME, cell-free

IC50 [1] [nM]	IC50 [2] [nM]	Activity [3]	Cp(f) [4] [nM]	Cave [5] [µM]	Cmax [6] [µM]	bioavailability [7] [%]	half-life [8] [min]	Cmax [9] [ng/mL]	AUC(0-inf) [10] [ng·h/mL]	AUC(0-inf) [11] [ng·h/mL]	half-life [12] [min]	AUC(0-inf) [13] [ng·h/mL]	Vd [14] [L/kg]	fraction unbound [15]	Activity [16] [%]	Activity [17]	IC50 [18] [µM]	half-life [19] [min]	fraction unbound [20]	Compound
2000	120	inactive																		COC[C@]1(OC)CC[C@H]2[C@@H]3CCC4=CC(=O)CCC4=C3[C@@H](c3ccc(/C=N/O)cc3)C[C@@]21C [ASOPRISNIL]
		inactive	11	3.6	8.8	98.5	138	2800	13000	13700	162	18000	0.3	0.019	60	inactive	> 10	168	0.003	CCS(=O)(=O)Nc1cc(F)c(-c2ccc(C#N)n2C)c(F)c1
